This note sets out measurements from ChEMBL document CHEMBL1201862, “PubChem BioAssay data set” (2004).

Activity calls are given as the source filed them. A value given as a limit tells only on which side of the number the result lay.

One test has as its target T1, ORF 73 (Human herpesvirus 8, UniProt O40947).
T1 sequence (O40947 whole entry): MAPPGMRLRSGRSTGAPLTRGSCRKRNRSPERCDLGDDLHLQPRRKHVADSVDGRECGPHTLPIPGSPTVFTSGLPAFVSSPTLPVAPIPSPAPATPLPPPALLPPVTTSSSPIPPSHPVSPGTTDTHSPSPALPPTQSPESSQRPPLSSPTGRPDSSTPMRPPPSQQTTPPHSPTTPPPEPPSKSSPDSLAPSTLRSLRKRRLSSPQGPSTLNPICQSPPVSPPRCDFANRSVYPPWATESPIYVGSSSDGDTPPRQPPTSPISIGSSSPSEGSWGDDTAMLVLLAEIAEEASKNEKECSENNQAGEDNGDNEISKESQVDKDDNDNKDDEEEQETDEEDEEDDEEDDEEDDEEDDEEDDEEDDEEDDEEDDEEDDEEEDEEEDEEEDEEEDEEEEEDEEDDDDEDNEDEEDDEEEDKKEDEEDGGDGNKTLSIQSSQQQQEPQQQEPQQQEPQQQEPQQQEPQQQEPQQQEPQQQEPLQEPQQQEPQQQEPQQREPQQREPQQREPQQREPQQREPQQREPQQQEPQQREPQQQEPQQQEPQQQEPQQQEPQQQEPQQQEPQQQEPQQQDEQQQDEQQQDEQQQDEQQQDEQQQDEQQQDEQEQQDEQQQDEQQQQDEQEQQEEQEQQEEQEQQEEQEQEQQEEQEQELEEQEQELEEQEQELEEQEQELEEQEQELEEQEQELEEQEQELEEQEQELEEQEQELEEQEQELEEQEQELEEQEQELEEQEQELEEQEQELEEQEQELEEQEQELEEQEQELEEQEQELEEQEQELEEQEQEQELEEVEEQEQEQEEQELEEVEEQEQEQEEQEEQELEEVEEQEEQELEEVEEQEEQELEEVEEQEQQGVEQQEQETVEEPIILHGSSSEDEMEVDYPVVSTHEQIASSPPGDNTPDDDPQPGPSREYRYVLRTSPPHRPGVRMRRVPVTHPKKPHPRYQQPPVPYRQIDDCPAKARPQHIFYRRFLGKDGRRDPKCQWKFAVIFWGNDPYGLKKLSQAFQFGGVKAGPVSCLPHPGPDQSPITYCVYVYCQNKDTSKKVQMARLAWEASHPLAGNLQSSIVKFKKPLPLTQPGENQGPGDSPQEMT
Kind of test: KSHV LANA DNA-binding disruption – biochemical, fluorescence polarization, cherry-picked samples, dose response (AID 504725).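 Further: fluorescence polarization of a labeled DNA duplex reporting LANA DNA binding; potency is for inhibitors that block LANA binding to the DNA.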 More on the design: species or system Human gammaherpesvirus 8.

The target of test [1] is T2, Ubiquitin-conjugating enzyme E2 N (Homo sapiens, UniProt P61088).
T2 sequence (P61088 whole entry): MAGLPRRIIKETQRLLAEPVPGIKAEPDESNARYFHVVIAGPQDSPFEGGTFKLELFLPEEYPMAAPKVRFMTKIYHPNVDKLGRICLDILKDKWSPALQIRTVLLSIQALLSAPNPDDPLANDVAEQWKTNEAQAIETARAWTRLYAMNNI
In kind it is functional.

A further test concerns the target T3, Bcl-2-related protein A1 (Mus musculus, UniProt Q07440).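 Further: confirmatory dose–response counterscreen on Bfl-1, used to check hits from a UBC13 polyubiquitin inhibitor campaign.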
T3 sequence (Q07440 whole entry): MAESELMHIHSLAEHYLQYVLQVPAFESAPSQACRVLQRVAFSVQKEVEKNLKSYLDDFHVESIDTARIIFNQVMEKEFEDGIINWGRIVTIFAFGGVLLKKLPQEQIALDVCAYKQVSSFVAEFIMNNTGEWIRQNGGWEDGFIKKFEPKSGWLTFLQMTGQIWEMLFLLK
In kind it is functional.

In test [2] the target is T2, Ubiquitin-conjugating enzyme E2 N. In kind it is functional. This is another data set of the same source.
Test [3] is described as follows: A Cell Based Secondary Assay To Explore Cytotoxicity of Compounds that Sensitize Mycobacterium Tuberculosis to Beta-Lactam Antibiotics. In kind it is functional.
Test [4] has as its system Streptococcus sp. 'group A'. Kind of test: Streptococcus pyogenes SK(-)GAS viability under kanamycin – luminescence, BacTiterGlo, confirmation, counter-screen for streptokinase expression inhibitor project, dose response (AID 1900). Type of test: functional, organism-based. On the technique in general: A counterscreen serves to expose hits that act by an unwanted route or on another target.

The target of another test is T4, Streptokinase A (Streptococcus pyogenes serotype M1, UniProt P10520).
T4 sequence (P10520 whole entry): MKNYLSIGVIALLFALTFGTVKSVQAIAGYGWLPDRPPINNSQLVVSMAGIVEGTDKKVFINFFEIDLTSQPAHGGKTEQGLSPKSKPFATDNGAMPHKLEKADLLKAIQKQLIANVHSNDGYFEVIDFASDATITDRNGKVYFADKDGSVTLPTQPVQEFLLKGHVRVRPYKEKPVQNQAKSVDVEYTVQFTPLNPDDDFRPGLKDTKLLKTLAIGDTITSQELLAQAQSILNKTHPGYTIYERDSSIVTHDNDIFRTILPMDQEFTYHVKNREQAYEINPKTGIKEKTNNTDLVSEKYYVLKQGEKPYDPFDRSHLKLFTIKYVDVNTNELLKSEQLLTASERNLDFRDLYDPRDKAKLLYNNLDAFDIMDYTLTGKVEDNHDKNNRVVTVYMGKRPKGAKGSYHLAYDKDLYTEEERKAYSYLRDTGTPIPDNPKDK
Kind of test: viability-normalized secreted streptokinase activity reduction – plasminogen activation absorbance, OD405, dose response (AID 1914).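 Further: secreted streptokinase activity via plasminogen activation per viability signal from cell pellet.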 In kind it is functional, Streptococcus pyogenes M1 GAS.

Test [5] has as its target T5, Zinc finger protein mex-5 (Caenorhabditis elegans, UniProt Q9XUB2).
T5 sequence (Q9XUB2 whole entry): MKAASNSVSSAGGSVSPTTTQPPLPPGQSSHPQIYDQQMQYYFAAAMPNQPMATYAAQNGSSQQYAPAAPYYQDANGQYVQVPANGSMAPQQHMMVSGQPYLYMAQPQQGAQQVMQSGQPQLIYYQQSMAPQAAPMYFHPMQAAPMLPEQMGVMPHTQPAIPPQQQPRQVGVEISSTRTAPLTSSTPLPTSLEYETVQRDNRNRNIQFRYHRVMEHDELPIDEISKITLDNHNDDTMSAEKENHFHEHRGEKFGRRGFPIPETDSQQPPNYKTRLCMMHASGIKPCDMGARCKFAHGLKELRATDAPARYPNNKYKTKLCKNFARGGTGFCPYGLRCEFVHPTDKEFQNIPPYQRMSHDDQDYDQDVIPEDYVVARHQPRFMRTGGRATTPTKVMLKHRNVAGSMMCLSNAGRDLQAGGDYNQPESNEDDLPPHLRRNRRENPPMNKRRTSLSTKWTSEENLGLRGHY
Kind of test: potency of MEX-5 RNA-binding blockers – biochemical, C. elegans, fluorescence polarization, dose response (AID 1960). Background: In fluorescence polarisation assays a small probe gives low polarisation when free and higher when bound to something large.

Test [6] has as its target T6, RNA-binding protein pos-1 (Caenorhabditis elegans, UniProt G5EF15).
T6 sequence (G5EF15 whole entry): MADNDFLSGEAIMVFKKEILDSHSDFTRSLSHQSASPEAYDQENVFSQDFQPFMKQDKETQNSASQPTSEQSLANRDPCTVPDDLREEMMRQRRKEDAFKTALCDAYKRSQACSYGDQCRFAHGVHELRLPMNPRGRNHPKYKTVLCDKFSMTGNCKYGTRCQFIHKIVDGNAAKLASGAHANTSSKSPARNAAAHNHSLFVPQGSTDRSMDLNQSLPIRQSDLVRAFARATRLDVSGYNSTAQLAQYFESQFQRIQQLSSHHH
Kind of test: disruptors of C. elegans POS-1 RNA interaction – biochemical, fluorescence polarization, dose response (AID 1964).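 Further: purified POS-1 fused to maltose binding protein made in E. coli; potency of compounds blocking POS-1 binding to fluorescent RNA.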

The next test concerns Streptococcus. Kind of test: GAS UMAA2166 growth inhibition – luminescence, BacTiterGlo, counter-screen for streptokinase expression inhibitor project, dose response (AID 1915).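 Further: potency for reduction of bacterial viability or growth.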 In kind it is functional, organism-based.
The target in test [7] is T7, Endoribonuclease toxin MazF (Escherichia coli K-12, UniProt P0AE70).
T7 sequence (P0AE70 whole entry): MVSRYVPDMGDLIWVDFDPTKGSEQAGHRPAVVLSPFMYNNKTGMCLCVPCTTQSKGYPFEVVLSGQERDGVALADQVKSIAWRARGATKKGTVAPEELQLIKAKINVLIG
Kind of test: activation of MazEF endoribonuclease cleavage – biochemical, fluorescence, single-stranded RNA substrate, uHTS hits, dose response (AID 588481). In kind it is functional.

Test [8] concerns the target T7, Endoribonuclease toxin MazF. Kind of test: substrate-only fluorescence increase artefacts – biochemical, single-stranded RNase substrate, counter-screen for MazEF activator project, dose response (AID 588502). Type of test: functional.
For the next test, the target named is Cytochrome P450 2C9 (Homo sapiens, UniProt P11712).
In a further test the target is Mu-type opioid receptor (Homo sapiens, UniProt P35372). Description: Counterscreen for agonists of heterodimerization of the mu 1 (OPRM1) and delta 1 (OPRD1) opioid receptors: Luminescence-based cell-based high throughput dose response assay to identify agonists of OPRM1 homodimerization. Type of test: functional.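 Further: U2OS cells expressing OPRM1 and beta-arrestin as split beta-galactosidase partners.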
The target of test [9] is 5-hydroxytryptamine receptor 5A (Homo sapiens, UniProt P47898). Description: Counterscreen for agonists of OPRM1-OPRD1 heterodimerization: luminescence-based cell-based high throughput dose response assay to identify agonists of 5-hydroxytryptamine (serotonin) 5A receptor (HTR5A). [Related pubchem assays (depositor defined):AID504326, AID504355, AID504692, AID504904, AID504905]. In kind it is functional.

For test [10], the target named is Delta-type opioid receptor (Homo sapiens, UniProt P41143). Kind of test: Counterscreen for agonists of heterodimerization of the mu 1 (OPRM1) and delta 1 (OPRD1) opioid receptors: Luminescence-based cell-based high throughput dose response assay to identify agonists of OPRD1 homodimerization. [Related pubchem assays (depositor defined):AID504326, AID504355, AID504692, AID504904, AID504905]. In kind it is functional.

The target in test [11] is T8, Calpain-2 catalytic subunit (Sus scrofa, UniProt P43367).
T8 sequence (P43367 whole entry): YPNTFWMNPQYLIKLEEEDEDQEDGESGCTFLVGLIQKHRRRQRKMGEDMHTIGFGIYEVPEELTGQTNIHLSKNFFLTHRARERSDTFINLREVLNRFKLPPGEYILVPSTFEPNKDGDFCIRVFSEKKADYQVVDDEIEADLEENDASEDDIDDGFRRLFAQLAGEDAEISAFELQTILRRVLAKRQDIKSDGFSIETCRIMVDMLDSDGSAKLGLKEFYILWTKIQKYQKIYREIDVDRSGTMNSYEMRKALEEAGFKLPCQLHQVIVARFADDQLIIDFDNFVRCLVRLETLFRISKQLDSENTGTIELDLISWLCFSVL
Description: m-calpain protease blockers, concentration series – biochemical, fluorogenic peptide substrate, dose response (AID 1420). Type of test: functional.

5-hydroxytryptamine receptor 5A, sequence (P47898 whole entry): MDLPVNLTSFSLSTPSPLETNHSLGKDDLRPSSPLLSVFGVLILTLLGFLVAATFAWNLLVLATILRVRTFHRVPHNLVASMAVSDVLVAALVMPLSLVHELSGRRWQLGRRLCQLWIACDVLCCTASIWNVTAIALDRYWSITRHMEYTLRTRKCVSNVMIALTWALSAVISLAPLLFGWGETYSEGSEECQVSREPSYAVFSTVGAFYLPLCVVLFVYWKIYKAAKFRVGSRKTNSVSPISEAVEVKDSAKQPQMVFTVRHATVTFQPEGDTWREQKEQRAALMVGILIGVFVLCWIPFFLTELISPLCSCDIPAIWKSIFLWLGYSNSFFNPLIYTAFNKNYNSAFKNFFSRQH
Delta-type opioid receptor, sequence (P41143 whole entry): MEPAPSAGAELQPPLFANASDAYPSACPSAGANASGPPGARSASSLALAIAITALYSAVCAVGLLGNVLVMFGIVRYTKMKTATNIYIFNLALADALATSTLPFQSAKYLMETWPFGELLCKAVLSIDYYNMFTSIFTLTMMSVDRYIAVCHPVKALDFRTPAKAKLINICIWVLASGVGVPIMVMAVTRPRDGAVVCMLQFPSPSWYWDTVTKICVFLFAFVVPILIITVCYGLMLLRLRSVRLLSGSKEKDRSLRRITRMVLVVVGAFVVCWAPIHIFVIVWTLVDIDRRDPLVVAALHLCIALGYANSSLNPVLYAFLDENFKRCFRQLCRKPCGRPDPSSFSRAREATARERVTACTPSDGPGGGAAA
Mu-type opioid receptor, sequence (P35372 whole entry): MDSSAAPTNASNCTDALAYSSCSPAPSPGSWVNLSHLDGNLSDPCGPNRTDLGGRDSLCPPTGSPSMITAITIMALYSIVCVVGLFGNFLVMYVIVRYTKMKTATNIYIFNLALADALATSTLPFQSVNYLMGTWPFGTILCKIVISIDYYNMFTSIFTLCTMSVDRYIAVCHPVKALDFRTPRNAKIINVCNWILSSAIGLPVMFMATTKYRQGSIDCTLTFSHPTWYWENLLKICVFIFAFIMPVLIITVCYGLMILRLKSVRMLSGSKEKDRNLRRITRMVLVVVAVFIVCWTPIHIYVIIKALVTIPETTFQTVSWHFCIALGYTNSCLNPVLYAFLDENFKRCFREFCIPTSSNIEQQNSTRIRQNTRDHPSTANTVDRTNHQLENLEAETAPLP
Cytochrome P450 2C9, sequence (P11712 whole entry): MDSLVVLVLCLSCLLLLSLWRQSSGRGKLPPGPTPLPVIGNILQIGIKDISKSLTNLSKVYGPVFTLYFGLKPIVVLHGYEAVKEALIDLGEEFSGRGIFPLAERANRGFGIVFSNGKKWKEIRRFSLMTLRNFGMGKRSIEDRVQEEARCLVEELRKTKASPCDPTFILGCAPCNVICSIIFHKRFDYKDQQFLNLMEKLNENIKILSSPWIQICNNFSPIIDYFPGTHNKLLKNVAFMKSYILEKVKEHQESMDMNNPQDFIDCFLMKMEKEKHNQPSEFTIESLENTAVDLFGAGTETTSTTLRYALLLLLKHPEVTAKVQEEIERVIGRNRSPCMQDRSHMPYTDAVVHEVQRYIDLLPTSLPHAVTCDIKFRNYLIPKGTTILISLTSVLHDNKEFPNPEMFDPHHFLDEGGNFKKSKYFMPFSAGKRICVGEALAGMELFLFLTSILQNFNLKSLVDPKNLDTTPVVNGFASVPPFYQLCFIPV

What is called AC50 is the concentration giving half of the maximal activity seen. As for `Cc1cc(O)c2c(n1)c(C)cc1[nH]c(C)c(C)c12`, the AC50 at ORF 73 was 42.3 µM (active).
The term IC50 denotes the concentration at which inhibition is half-maximal. Consider `COc1cccc(NC(=O)CSc2nc3ccccc3c(=O)n2Cc2cccs2)c1`, for which the IC50 in test [1] is 19.3 µM (active); on Bcl-2-related protein A1, > 20 µM (inactive); in [2], > 20 µM (inactive).
`Cc1nc(N)sc1C(=O)N/N=C/c1cccnc1`: the IC50 in test [1] was 1.68 µM (active); on Bcl-2-related protein A1, > 20 µM (inactive); in test [2] it was 1.89 µM (active).
The CC50 is the concentration giving 50% cytotoxicity. For orientation: EC50 means the concentration that produces a half-maximal response. For the molecule `CC1=Nc2ccccc2/C1=C\c1nc(-c2ccc(F)cc2)oc1O`, the CC50 in [3] was > 40 µM (active). The EC50 is 8.82 µM (active) in test [4]; 16.6 µM (active) at Streptokinase A; 5.53 µM (active) in test [5]; > 300 µM (not active) in test [6]; > 150 µM (not active) in the test on Streptococcus; > 99 µM (inactive) in [7]. In test [8], the EC50 is 55.9 µM (inactive).
In the case of `COc1cc(C2C(C#N)=C(N)N(c3sc4c(c3C#N)CCCC4)C3=C2C(=O)CC(C)(C)C3)cc(OC)c1OC` (stereo unspecified), the AC50 at Cytochrome P450 2C9 was 12.6 µM (inconclusive). Further, the EC50 (at Mu-type opioid receptor; in test [9]; in test [10]) was > 92.5 µM (inactive) each time.
Take `CN(C)C(CNC(C(=O)Nc1ccc([N+](=O)[O-])cc1Br)c1ccccc1)c1ccccc1` (stereo unspecified): the EC50 (at Mu-type opioid receptor; in [9]; in [10]) was > 92.5 µM (inactive) in each case. The IC50 in [11] is listed as 4.94 µM (not active).
Turning to `C#CCOCCOCCOCCNc1nc(N2CCN(C(=O)[C@H](CCCCN)n3cc(CN)nn3)CC2)nc(N2CCN(C(=O)[C@H](CCCCN)n3cc([C@@H](N)[C@H](C)CC)nn3)CC2)n1`, the values for the IC50 (in [1]; on Bcl-2-related protein A1; in test [2]) were 4.49 µM (active), > 20 µM (inactive) and 3.13 µM (active), respectively.
